# Assay results from patent US20130084328A1, “METHYLATED CODING AND NON-CODING RNA GENES AS DIAGNOSTIC AND THERAPEUTIC TOOLS FOR HUMAN MELANOMA” (Sanford-Burnham Medical Research Institute, priority 2011, published 2013).
# System: miR-124-3a and miR-let-7i
# Test: expression and bisulfite methylation of miR-124-3a and miR-let-7i after 5-Aza-dC
# Assay type: cell-based, human
# Conditions: melanoma cells
# Protocol: PCR was performed using a 6-minute hot-start at 95° C., followed by 35 cycles at 94° C. for 20 s, 54° C. for 25 s, and 72° C. for 30 s, ending with a 10-min extension at 72° C. using AmpliTaq Gold (Applied Biosystems/Life Technologies). PCR products were gel purified using the QiaQuick gel extraction kit (QIAGEN) and cloned into the pCR4-TOPO vector (Invitrogen/Life Technologies). Nine clones for each miRNA candidate and 6 clones for each patient sample were sequenced using M13 primers and the BigDye terminator kit v1.1 (Applied Biosystems/Life Technologies), analyzed on a 3130×1 Genetic Analyzer (Applied Biosystems/Life Technologies), and aligned using Vector NTi AlignX (Invitrogen/Life Technologies).
structure (smiles),measurement,value
"Nc1ncn([C@H]2C[C@H](O)[C@@H](CO)O2)c(=O)n1 [5AzadC, 5-aza-2′-deoxycytidine]",expression and methylation levels of miR-124-3a and miR-let-7i,not affected
